Measured values: patent publication US20170232083A1, “METHODS OF DIAGNOSIS AND TREATMENT OF CELIAC DISEASE IN CHILDREN” (priority 2014, published 2017)
Values joined by “and” are separate entries in the source; they are usually repeats but may differ in a detail not shown here. Identical values can stand only once. Non-standard residues stand in square brackets, D forms with d. pGlu = O=C1CC[C@@H](C(=O)O)N1

System: peripheral blood mononuclear cells obtained from children
Test: IFNγ ELISpot PBMC assay after oral wheat bread challenge (Examples 1-2)
Format: cell-based, human
Experimental: An oral wheat bread challenge was conducted in DQ2.5+ children and adolescents having Celiac disease. The age ranges were 3-5, 6-10 and 11-18 years of age. An ELISpot peripheral blood mononucleated cell (PBMC) assay was performed to measure the level of IFNγ released by the PBMCs after being contacted with peptide 1, peptide 2, peptide 3, or a combination thereof. The identities of peptides 1, 2, and 3 are shown below.
The values the rows starting from “Blank (SFU)” and ending at “Pept-1/2/3 (150)” are all spot forming unit (SFU) values. The values in the parentheses in the first column are the concentration of each peptide in micrograms that were added to the PBMCs (e.g., Pept-1 50=50 micrograms of Peptide 1, Pept-1/2/3 50=50 micrograms of each of Peptide 1, Peptide 2, and Peptide 3). Pept-1=Peptide 1, Pept-2=Peptide 2, Pept-3=Peptide 3, the amino acid identities of which are mentioned above. D-Gli=deamidated gliadin. WT-Gli=wild-type gliadin. D-Glut=deamidated gluten. WT-Glut=wild-type gluten.
IFNγ ELISpot responses in 9 older children (11-17 yo) and 6 younger children (3-10 yo) were stimulated by the mixture of peptides 1, 2, and 3 described in Example 1 (each peptide at a concentration of 25 ug/mL) or stimulated by deamidated gliadin (100 ug/mL) after 3-day wheat challenge (r2=0.8, p<0.0001). The ELISpot responses were similar using either the peptide mixture of the deamidated gliadin (FIG. 1).

Sequence: ELQPFPQPELPYPQPQ ([pGlu]LQPFPQPELPYPQPQ-NH2) [Peptide 1]
- most active peptides in gliadin for children: most active
- SFU, IFNγ ELISpot (Subject B, 5.0 × 10^5 cells per well, 25 micrograms, listed as Pept-1): 4 SFU and 3 SFU
- SFU, IFNγ ELISpot (Subject B, 5.0 × 10^5 cells per well, 100 micrograms, listed as Pept-1): 3 SFU and 2 SFU
- SFU, IFNγ ELISpot (Subject C, 5.0 × 10^5 cells per well, 25 micrograms, listed as Pept-1): 10 SFU and 5 SFU
- SFU, IFNγ ELISpot (Subject C, 5.0 × 10^5 cells per well, 50 micrograms, listed as Pept-1): 6 SFU and 5 SFU
- SFU, IFNγ ELISpot (Subject D, 4.0 × 10^5 cells per well, 25 micrograms, listed as Pept-1): 28 SFU and 32 SFU
- SFU, IFNγ ELISpot (Subject D, 4.0 × 10^5 cells per well, 50 micrograms, listed as Pept-1): 23 SFU and 31 SFU
- SFU, IFNγ ELISpot (Subject D, 4.0 × 10^5 cells per well, 100 micrograms, listed as Pept-1): 32 SFU and 25 SFU
- SFU, IFNγ ELISpot (Subject E, 5.0 × 10^5 cells per well, 25 micrograms, listed as Pept-1): 177 SFU and 139 SFU
- SFU, IFNγ ELISpot (Subject E, 5.0 × 10^5 cells per well, 50 micrograms, listed as Pept-1): 160 SFU and 144 SFU
- SFU, IFNγ ELISpot (Subject E, 5.0 × 10^5 cells per well, 100 micrograms, listed as Pept-1): 139 SFU and 153 SFU
- SFU, IFNγ ELISpot (Subject F, 5.0 × 10^5 cells per well, 25 micrograms, listed as Pept-1): 151 SFU and 146 SFU
- SFU, IFNγ ELISpot (Subject F, 5.0 × 10^5 cells per well, 50 micrograms, listed as Pept-1): 186 SFU and 147 SFU
- SFU, IFNγ ELISpot (Subject F, 5.0 × 10^5 cells per well, 100 micrograms, listed as Pept-1): 166 SFU and 138 SFU
- SFU, IFNγ ELISpot (Subject G, 4.0 × 10^5 cells per well, 25 micrograms, listed as Pept-1): 8 SFU and 14 SFU
- SFU, IFNγ ELISpot (Subject G, 4.0 × 10^5 cells per well, 50 micrograms): 10 SFU
- SFU, IFNγ ELISpot (Subject H, 3.5 × 10^5 cells per well, 25 micrograms, listed as Pept-1): 14 SFU and 13 SFU
- SFU, IFNγ ELISpot (Subject H, 3.5 × 10^5 cells per well, 50 micrograms): 8 SFU
- SFU, IFNγ ELISpot (Subject H, 3.5 × 10^5 cells per well, 100 micrograms, listed as Pept-1): 9 SFU and 8 SFU
- SFU, IFNγ ELISpot (Subject I, 5.0 × 10^5 cells per well, 25 micrograms, listed as Pept-1): 6 SFU and 7 SFU
- SFU, IFNγ ELISpot (Subject J, 5.0 × 10^5 cells per well, 25 micrograms, listed as Pept-1): 103 SFU and 109 SFU
- SFU, IFNγ ELISpot (Subject J, 5.0 × 10^5 cells per well, 50 micrograms, listed as Pept-1): 107 SFU and 92 SFU
- SFU, IFNγ ELISpot (Subject J, 5.0 × 10^5 cells per well, 100 micrograms, listed as Pept-1): 109 SFU and 111 SFU
- SFU, IFNγ ELISpot (Subject K, 3.2 × 10^5 cells per well, 25 micrograms, listed as Pept-1): 33 SFU and 28 SFU
- SFU, IFNγ ELISpot (Subject K, 3.2 × 10^5 cells per well, 50 micrograms, listed as Pept-1): 28 SFU and 20 SFU
- SFU, IFNγ ELISpot (Subject K, 3.2 × 10^5 cells per well, 100 micrograms, listed as Pept-1): 24 SFU and 38 SFU
- SFU, IFNγ ELISpot (Subject L, 3.5 × 10^5 cells per well, 25 micrograms, listed as Pept-1): 10 SFU and 9 SFU
- SFU, IFNγ ELISpot (Subject L, 3.5 × 10^5 cells per well, 100 micrograms, listed as Pept-1): 14 SFU and 7 SFU
- SFU, IFNγ ELISpot (Subject M, 2.3 × 10^5 cells per well, 25 micrograms, listed as Pept-1): 34 SFU and 18 SFU
- SFU, IFNγ ELISpot (Subject M, 2.3 × 10^5 cells per well, 50 micrograms, listed as Pept-1): 32 SFU and 30 SFU
- SFU, IFNγ ELISpot (Subject M, 2.3 × 10^5 cells per well, 100 micrograms, listed as Pept-1): 45 SFU and 40 SFU
- SFU, IFNγ ELISpot (Subject N, 2.4 × 10^5 cells per well, 25 micrograms, listed as Pept-1): 4 SFU and 6 SFU
- SFU, IFNγ ELISpot (Subject N, 2.4 × 10^5 cells per well, 100 micrograms, listed as Pept-1): 5 SFU and 3 SFU
- SFU, IFNγ ELISpot (Subject P, 3.0 × 10^5 cells per well, 0.1 micrograms, listed as Pept-1): 16 SFU and 15 SFU
- SFU, IFNγ ELISpot (Subject P, 3.0 × 10^5 cells per well, 0.5 micrograms, listed as Pept-1): 21 SFU and 24 SFU
- SFU, IFNγ ELISpot (Subject P, 3.0 × 10^5 cells per well, 1 micrograms, listed as Pept-1): 49 SFU and 31 SFU
- SFU, IFNγ ELISpot (Subject P, 3.0 × 10^5 cells per well, 2.5 micrograms, listed as Pept-1): 45 SFU
- SFU, IFNγ ELISpot (Subject Q, 3.0 × 10^5 cells per well, 0.1 micrograms, listed as Pept-1): 12 SFU and 18 SFU
- SFU, IFNγ ELISpot (Subject Q, 3.0 × 10^5 cells per well, 0.5 micrograms, listed as Pept-1): 34 SFU and 32 SFU
- SFU, IFNγ ELISpot (Subject Q, 3.0 × 10^5 cells per well, 1 micrograms, listed as Pept-1): 45 SFU and 36 SFU
- SFU, IFNγ ELISpot (Subject R, 3.0 × 10^5 cells per well, 0.1 micrograms, listed as Pept-1): 12 SFU and 16 SFU
- SFU, IFNγ ELISpot (Subject R, 3.0 × 10^5 cells per well, 0.5 micrograms, listed as Pept-1): 21 SFU and 26 SFU
- SFU, IFNγ ELISpot (Subject R, 3.0 × 10^5 cells per well, 1 micrograms, listed as Pept-1): 22 SFU and 21 SFU
- SFU, IFNγ ELISpot (Subject S, 3.0 × 10^5 cells per well, 0.1 micrograms, listed as Pept-1): 2 SFU and 4 SFU
- SFU, IFNγ ELISpot (Subject S, 3.0 × 10^5 cells per well, 0.5 micrograms, listed as Pept-1): 1 SFU and 2 SFU
- SFU, IFNγ ELISpot (Subject S, 3.0 × 10^5 cells per well, 1 micrograms, listed as Pept-1): 1 SFU and 2 SFU
- SFU, IFNγ ELISpot (Subject T, 3.0 × 10^5 cells per well, 0.1 micrograms, listed as Pept-1): 20 SFU and 18 SFU
- SFU, IFNγ ELISpot (Subject T, 3.0 × 10^5 cells per well, 0.5 micrograms, listed as Pept-1): 34 SFU and 31 SFU
- SFU, IFNγ ELISpot (Subject T, 3.0 × 10^5 cells per well, 1 micrograms, listed as Pept-1): 55 SFU and 60 SFU
- SFU, IFNγ ELISpot (Subject U, 3.0 × 10^5 cells per well, 0.1 micrograms, listed as Pept-1): 6 SFU and 7 SFU
- SFU, IFNγ ELISpot (Subject U, 3.0 × 10^5 cells per well, 0.5 micrograms, listed as Pept-1): 18 SFU and 20 SFU
- SFU, IFNγ ELISpot (Subject U, 3.0 × 10^5 cells per well, 1 micrograms, listed as Pept-1): 33 SFU and 24 SFU
- T cell response in PBMC samples from children after gluten challenge (general increase in SFU in each child, Tables 2-5): induce a T cell response
